From US20070026090A1, “Treatment and prevention of inflammatory disease and mitochondrial dysfunction with high dose selenium” (priority 2003, published 2007)

Assays:
Sp1 = Sp1 binding in vitro, selenite added to nuclear extract (EMSA); design: species or system murine; conditions: 5 μM added to nuclear extract 5 minutes before (FIG. 13C)
Experimental: Nuclear extracts: Nuclear Extracts were prepared using a slight modification of the method of Dignam et al (23). Treated cells were washed with cold PBS, scraped and centrifuged. Hypotonic buffer (1 ml, 20 mM HEPES pH 7.0, 10 mM KCl, 1 mM mGCl2, 0.5 mM DTT, 0.1% Triton X-100, 20% glycerol, 2 mM PMSP, 1 mg/ml Aprotonin and Leupeptin) was added to the cell pellets, the pellets were disrupted by pipetting, and centrifuged 3000 RPM for 5 min. The pellets were re-suspended in 100 μl cold extraction buffer (20 mM HEPES pH 7.0, 10 mM KCl, 1 mM mGCl2, 0.5 mM DTT, 0.1% Triton X-100, 20% glycerol, 2 mM PMSF, 1 mg/ml Aprotonin and Leupeptin, 420 mM NaCl). The samples were rotated for 20 min at 4° C., centrifuged 15,000 RPM for 10 min, and supernatants collected. Protein content was measured using Bradford reagent. Samples were stored frozen at minus 70° C.
Electromobility shift assay (EMSA)—Gel shift assays were performed according to the gel shift assay protocol from Promega Corp. (San Luis Obispo, Calif.). A 22-mer double-stranded NF-κB consensus oligonucleotide 5′-[…]-3′ (SEQ ID NO:3), and Sp1 consensus oligonucleotide 5′-[…]-3(SEQ ID NO:4), were labeled with 32P. […]

cytochrome c mRNA = assay: Cytochrome c mRNA in colon tissue (RT-PCR); assay type: in vivo, rat; conditions: 24 h after TNBS; supplemented (FIG. 7A lane 4)
mtTFA = mtTFA mRNA in colon tissue (RT-PCR); assay type: in vivo, rat
Experimental: (§1) Mitochondrial (mt) TFA, NRF1, and cytochrome c mRNA analysis: Total RNA was extracted from 50 to 100 mg tissue at a time using 1 ml of Tri Reagent® (Sigma-Aldrich Corp., St. Louis, Mo.) according to manufacturer's instructions. First strand cDNA synthesis was carried out using reverse-iTTM First Strand Synthesis from Advanced Biotechnologies (ABgene®, ABgene, Epsom, U.K.) was used according to the manufacturer's instructions. Target sequences were amplified in the PCR reaction as follows: each tube contained 37 ng of cDNA from cytochrome c, GAPDH, or 18S, 3 μl of specific primers, 12.5 μl of ready Mix and 6.5 μl water DEPC (for a total 25 μl in each tube).
(§2) The PCR for cytochrome c, NRF1 and mtTFA was run at 95° C. for 5 min, 94° C. for 30 sec, 56° C. for 2 min, 72° C. for 1 min, back to stage 2 for 22, 26, 24 cycles, respectively, then 72° C. for 10 min, and 4° C. The products of the PCR were separated on a 1% agarose gel in TAE buffer with ethidium bromide. The electrophoresis took place in a BioRad device in 1×TAE buffer at 95 V for about 50 min (maximum mA). The size of the cDNA was determined by a 100-bp marker.
Rat mtTFA: (Antisense) 5′-[…]-3′ (SEQ ID No. 15) corresponding to nucleotides 756 to 777 of rat mtMTFA (GenBank Accession No. AJ312746).
(Sense): 5′-[…]-3′ (SEQ ID No. 16). The expected PCR product was 417 bp, the actual 417 bp.

NRF-1 = assay: NRF1 mRNA in colon tissue (RT-PCR); assay type: in vivo, rat
Experimental: as §1, §2
Rat NFR-1: (Antisense) 5′-[…]-3′ (SEQ ID No. 13) corresponding to nucleotides 450 to 469 of rat NFR-1 (GenBank Accession No. XM231566).
(Sense): 5′-[…] -3′ (SEQ ID No. 14). The expected PCR product was 461 bp, the actual 461 bp.

NF-κB = NF-κB binding in vitro, selenite added to nuclear extract (EMSA); design: species or system murine; conditions: 5 μM added to nuclear extract 5 minutes before (FIG. 12B)
Experimental: Electromobility shift assay (EMSA)—Gel shift assays were performed according to the gel shift assay protocol from Promega Corp. (San Luis Obispo, Calif.). […] For each reaction, 2 μg of nuclear extract were incubated with 2 μl of 5× binding buffer for 5 min., 1 μl of the ^32P-labeled oligonucleotide was added at room temperature for 20 min., the samples were prepared by adding 1 μl of dye free loading buffer, and separated using 6% non-denaturing acrylamide gel electrophoresis. […]

[1] = healthy supplemented rats (FIG. 17 lane 2)

[Se] [selenium]
Sp-1 binding in vitro (Sp1): directly inhibited | effect of TNBS-induced colitis on cytochrome c mRNA levels (cytochrome c mRNA): completely prevented | mtTFA levels in colon tissue, colitis-induced rats (mtTFA; 24 h after TNBS, supplemented (FIG. 17 lane 4), unsupplemented nearly absolute loss): surpass that of healthy control rats | mtTFA levels in colon tissue, healthy rats (mtTFA; [1]): significantly enhances | NRF-1 levels in colon tissue, colitis-induced rats (NRF-1; 24 h after TNBS, supplemented (FIG. 17 lane 4), unsupplemented nearly 50% reduction): surpass that of healthy control rats | NRF-1 levels in colon tissue, healthy rats (NRF-1; [1]): significantly enhances | NF-κB binding in vitro (NF-κB): directly inhibited
